Experimental data: the supplement of paper PMC10307832

How the values were obtained:
Assay in all cases: relative viability (nuclei count vs DMSO), 5 days (fraction); higher = more cells survive
[1] = compound: C=C(c1ccc(C(=O)O)cc1)c1cc2c(cc1C)C(C)(C)CCC2(C)C [Bexarotene] + COc1cccc2cc(-c3nc([C@H]4CC[C@H](C(=O)O)CC4)n4ncnc(N)c34)[nH]c12 [OSI-027] (partner 0.5 µM)
How it was run: (§1)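 Relative viability equals treated-well nuclei counts divided by vehicle-well nuclei counts. Counts came from 4× images of lung cancer cell lines grown in 1536-well plates for 5 days after pin-tool dosing on the day after seeding. Dosing used one drug alone or a fixed anchor-drug dose plus five library-drug doses (not always all listed) in √10 steps, and values are medians of duplicate plates.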

[2] = compound: C=C(c1ccc(C(=O)O)cc1)c1cc2c(cc1C)C(C)(C)CCC2(C)C [Bexarotene] + NC(=O)Nc1cc(-c2cccc(F)c2)sc1C(=O)N[C@H]1CCCNC1 [AZD7762] (partner 0.2 µM)
How it was run: as §1

[3] = compound: C=C(c1ccc(C(=O)O)cc1)c1cc2c(cc1C)C(C)(C)CCC2(C)C [Bexarotene] + COc1cc2c(Oc3ccc(NC(=O)C4(C(=O)Nc5ccc(F)cc5)CC4)cc3F)ccnc2cc1OCCCN1CCOCC1 [Foretinib] (partner 0.25 µM)
How it was run: as §1

[4] = compound: C=C(c1ccc(C(=O)O)cc1)c1cc2c(cc1C)C(C)(C)CCC2(C)C [Bexarotene] + Nc1nc2[nH]cc(CCc3ccc(C(=O)N[C@@H](CCC(=O)O)C(=O)O)cc3)c2c(=O)[nH]1 [Pemetrexed] (partner 0.2 µM)
How it was run: as §1

Cell Line	relative viability ([1]; first compound 0.08 µM)	relative viability ([1]; first compound 0.253 µM)	relative viability ([1]; first compound 0.8 µM)	relative viability ([1]; first compound 2.53 µM)	relative viability ([1]; first compound 8 µM)	relative viability ([2]; first compound 0.08 µM)	relative viability ([2]; first compound 0.253 µM)	relative viability ([2]; first compound 0.8 µM)	relative viability ([2]; first compound 2.53 µM)	relative viability ([2]; first compound 8 µM)	relative viability ([3]; first compound 0.08 µM)	relative viability ([3]; first compound 0.253 µM)	relative viability ([3]; first compound 0.8 µM)	relative viability ([3]; first compound 2.53 µM)	relative viability ([3]; first compound 8 µM)	relative viability ([4]; first compound 0.08 µM)	relative viability ([4]; first compound 0.253 µM)	relative viability ([4]; first compound 0.8 µM)	relative viability ([4]; first compound 2.53 µM)	relative viability ([4]; first compound 8 µM)
PC-14	0.88	0.938	0.743	0.836	0.647	0.357	0.436	0.415	0.299	0.338	1.12	1.08	0.973	1.01	0.934	0.127	0.144	0.145	0.145	0.16
A-427	0.448	0.462	0.455	0.449	0.415	0.79	0.71	0.736	0.691	0.688	1.14	0.932	0.941	1.05	0.868	0.938	0.872	0.794	0.773	0.904
H3255	0.714	0.538	0.598	0.585	0.6	0.948	0.941	0.975	0.851	1.05	1.01	0.821	0.906	0.779	0.748	0.585	0.577	0.551	0.554	0.558
NCI-H1734	0.616	0.64	0.591	0.493	0.543	0.552	0.536	0.522	0.488	0.526	0.913	0.799	0.928	0.822	0.769	0.438	0.419	0.454	0.361	0.363
NCI-H1993	0.588	0.498	0.564	0.54	0.564	0.805	0.83	0.618	0.851	0.636	0.807	0.732	0.768	0.725	0.766	0.714	0.611	0.537	0.534	0.514
NCI-H1437	0.985	0.819	1.01	0.89	0.982	1.2	1.14	1.19	1.14	1.15	1.26	1.32	1.22	1.23	1.26	0.352	0.302	0.338	0.296	0.322
201T	0.852	0.445	0.757	0.639	0.474	0.796	0.612	0.714	0.591	0.514	1.17	1.25	1.17	1.06	0.976	0.385	0.295	0.322	0.355	0.347
NCI-H358	0.764	0.774	0.685	0.798	0.633	0.546	0.511	0.505	0.49	0.572	0.8	0.929	0.708	0.818	0.722	0.182	0.184	0.144	0.167	0.158
ChaGo-K-1	0.651	0.676	0.715	0.545	0.611	0.934	0.828	0.813	0.832	0.873	1.07	0.963	0.976	0.936	0.919	0.274	0.249	0.251	0.253	0.275
LOU-NH91	0.709	0.718	0.606	0.599	0.643	0.85	0.766	0.759	0.741	0.712	0.88	0.89	0.84	0.878	0.786	0.449	0.43	0.399	0.399	0.386
HOP-62	0.92	0.841	0.847	0.803	0.802	0.626	1.04	0.718	0.412	0.669	1.35	1.28	1.23	1.14	1.08	0.332	0.297	0.336	0.314	0.361
NCI-H1915	0.67	0.661	0.568	0.594	0.601	0.707	0.724	0.674	0.653	0.655	1.19	1.13	1.1	1.06	1.07	0.519	0.492	0.54	0.473	0.439
NCI-H3122	1.09	1.09	1.05	0.989	1.07	1.05	1	0.944	0.968	1.13	0.99	0.988	0.957	0.9	0.975	0.219	0.202	0.194	0.217	0.213
NCI-H1651	0.843	0.717	0.71	0.702	0.744	0.544	0.491	0.525	0.454	0.549	0.86	0.98	0.805	0.933	0.84	0.709	0.487	0.61	0.617	0.622
NCI-H838	0.443	0.391	0.465	0.47	0.554	1.03	1.09	0.989	0.978	0.938	1.14	1.03	1.06	1.05	1.01	0.275	0.254	0.272	0.251	0.249
NCI-H596	0.859	0.69	0.704	0.708	0.634	1.19	1.01	1.01	0.976	1.02	0.781	0.61	0.813	0.853	0.858	0.47	0.482	0.451	0.456	0.736
